# Assay results from PubChem BioAssay (NCI).
# “And” between values parts separate entries of the source, which are not always exact repeats. Equal values may be shown once.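 In this assay, cells in 96-well plates receive the compound at five concentrations for 48 hours. Endpoints are linearly interpolated between the surrounding concentrations. GI50 is the concentration that inhibits growth by half. The concentration for full growth arrest is given as TGI.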
# How the values were obtained:
# Assay in all cases: growth of human tumour cells (NCI), 48 h
# COLO 205 colon = system: COLO 205 colon
# HCT-15 colon = system: HCT-15 colon
# HOP-92 NSCLC = system: HOP-92 NSCLC
# HS 578T breast = system: HS 578T breast
# MALME-3M melanoma = system: MALME-3M melanoma
# NCI-H226 lung = system: NCI-H226 lung
# OVCAR-3 ovarian = system: OVCAR-3 ovarian
# RXF 393 renal = system: RXF 393 renal
# SW-620 colon = system: SW-620 colon
# UACC-62 melanoma = system: UACC-62 melanoma
Compound,GI50 (COLO 205 colon) [µM],TGI (COLO 205 colon) [µM],GI50 (HCT-15 colon) [µM],TGI (HCT-15 colon),GI50 (HOP-92 NSCLC) [µM],TGI (HOP-92 NSCLC) [µM],GI50 (HS 578T breast) [µM],TGI (HS 578T breast),GI50 (MALME-3M melanoma) [µM],TGI (MALME-3M melanoma),GI50 (NCI-H226 lung) [µM],TGI (NCI-H226 lung),GI50 (OVCAR-3 ovarian) [µM],TGI (OVCAR-3 ovarian) [µM],GI50 (RXF 393 renal) [µM],TGI (RXF 393 renal) [µM],GI50 (SW-620 colon) [µM],TGI (SW-620 colon),GI50 (UACC-62 melanoma) [µM],TGI (UACC-62 melanoma) [µM]
OCc1ccc(-c2csc(-c3ccc(CO)o3)c2)o1,4.36,> 56,32.8,> 100 µM,20.4,86.4,70.6,> 100 µM,35.5,> 100 µM,0.165,0.454 µM,5.86,> 100,> 79.7,> 100,35.9,> 100 µM,0.767,33.7
CCn1c(-c2nonc2N)nc2c(C#CC(C)(C)O)ncc(OC3CCNCC3)c21,4.89,> 21.9,> 25,> 25 µM,> 25,> 25,2.11,> 25 µM,> 25,> 25 µM,23.3,> 25 µM,5.38,17.3,2.84,13.3,10.3,> 25 µM,15.8,> 25
O=C(CCCn1c2c(sc3ccccc32)c(=O)n2nnc(-c3ccccc3)c12)NCCc1cnc[nH]1,0.299,2.35,0.505,2.14 µM,6.16,33,0.783,2.19 µM,1.88,3.58 µM,4.43,14.1 µM,2.01,5.41,2.56,5.25,0.0245,0.362 µM,1.81,3.39
COc1ccc(-c2cc(/C=C3\C(=O)Nc4cc(Cl)ccc43)[nH]n2)cc1,2.06,5.51,2.53,> 100 µM,2.33,56.9,2.9,35 µM,6.23,> 100 µM,13.1,98.6 µM,2.59,8.48,2.03,7.36,2.57,> 100 µM,2.46,> 100
C/C(CCC(=O)O)=N/Nc1ccc([N+](=O)[O-])cc1,3.43,> 100,3.35,> 100 µM,> 100,> 100,> 100,> 100 µM,65,> 100 µM,> 100,> 100 µM,17.4,> 100,> 100,> 100,2.6,> 100 µM,0.492,62.3
CN(C)C1CCN(Cc2ccc(NC(=O)c3cncc(C#Cc4cnc(N)c5ncccc45)c3)cc2C(F)(F)F)CC1,–,–,5.08,13.7 µM,2.77,11.3,3.84,14.8 µM,0.828,1.65 µM,–,–,9.3,17.6,1.9,7.67,1.32,4.03 µM,6.09,13.8
CN1CC=C(c2cc(NC(=O)Nc3ccc(Oc4ccnc(NC(=O)C5CC5)c4)c(F)c3)cc(C(F)(F)F)c2)CC1,–,–,1.08,4.33 µM,1.55,3.58,0.982,3.09 µM,0.289,1.13 µM,1.35,4.03 µM,0.234,4.93,0.172,0.411,0.196,0.556 µM,1.1,2.25
COc1cc2c(c(O)c1Cl)C(=O)c1c(O)cc(C[C@H](C)O)cc1[C@H]2[C@H]1c2cc(C[C@H](C)O)cc(O)c2C(=O)c2c1cc(OC)c(Cl)c2O,–,–,–,75 µM and > 100 µM,–,–,–,75 µM and 64.9 µM,–,5.27 µM and 47.3 µM,–,75 µM and 98.1 µM,–,–,–,–,–,75 µM and > 100 µM,–,–
Cc1ccc([Se](=C(C(=O)c2ccccc2)C(=O)c2ccccc2)c2ccc(C)cc2)cc1,–,43.4,–,44.7 µM,–,53.4,–,72.9 µM,–,50.3 µM,–,56.7 µM,–,74.1,–,> 100,–,> 100 µM,–,51.5
O=Cc1cccc2ccc3ccccc3c12,–,37.5,–,> 100 µM,–,–,–,54.7 µM,–,49.7 µM,–,74.8 µM,–,40.4,–,61,–,74.3 µM,–,76
O=C(CN1CCN(Cc2ccccc2Cl)CC1)NC1CC(=O)c2c(Br)sc(Br)c21 (centres undefined),21.2,38.4,18,34.1 µM,14.1,31.6,29.4,71.5 µM,21.6,43.8 µM,23.9,91.8 µM,20.8,43.4,–,–,19.8,36.6 µM,16.3,31
COc1cc(-c2cc3ncccc3c3nc(OCCN(C)C)c4cccnc4c23)cc(OC)c1OC,–,–,0.502,23.4 µM,1.1,3.2,1.5,14.9 µM,0.431,2.5 µM,0.623,2.46 µM,0.64,3.09,0.473,2.07,0.324,15.2 µM,0.42,2.45
O=C1/C(=C/c2ccc([N+](=O)[O-])s2)Oc2cc(Cl)ccc21,–,–,0.276,1.12 µM,0.631,2.53,0.519,5.43 µM,–,–,3.83,> 21.8 µM,0.325,0.898,1.04,2.63,0.217,0.524 µM,0.998,3.14
O=C(NC(=Nc1ccccc1)SCSC(=Nc1ccccc1)NC(=O)c1ccco1)c1ccco1,–,> 100,–,> 100 µM,–,53.7,–,–,–,> 100 µM,–,> 100 µM,–,> 100,–,55,–,> 100 µM,–,> 100
CC1(C)CC(=O)C=C(/C=C/Sc2c(Cl)c(Cl)nc(Cl)c2Cl)C1,17.2,31.3,5.64,23 µM,16.7,35.2,25.8,74.3 µM,–,–,12.7,29 µM,2.6,8.29,7.61,22,11.8,32.7 µM,8.48,20.8
COC(=O)Oc1nn(C(=O)OC)c(=O)c2ccccc12,–,> 100,–,> 100 µM,–,–,–,> 100 µM,–,> 100 µM,–,> 100 µM,–,> 100,–,–,–,> 100 µM,–,> 100

Compound,GI50 (COLO 205 colon) [µM],TGI (COLO 205 colon) [µM],GI50 (HCT-15 colon) [µM],TGI (HCT-15 colon),GI50 (HOP-92 NSCLC) [µM],TGI (HOP-92 NSCLC) [µM],GI50 (HS 578T breast) [µM],TGI (HS 578T breast),GI50 (MALME-3M melanoma) [µM],TGI (MALME-3M melanoma),GI50 (NCI-H226 lung) [µM],TGI (NCI-H226 lung),GI50 (OVCAR-3 ovarian) [µM],TGI (OVCAR-3 ovarian) [µM],GI50 (RXF 393 renal) [µM],TGI (RXF 393 renal) [µM],GI50 (SW-620 colon) [µM],TGI (SW-620 colon),GI50 (UACC-62 melanoma) [µM],TGI (UACC-62 melanoma) [µM]
Cc1ccc([P+](Cc2ccccc2)(c2ccccc2)c2ccccc2)cc1,–,–,19.5,> 100 µM,–,–,3.19,83.4 µM,–,–,2.57,> 100 µM,1.52,65.8,3.68,41.1,2.66,49.6 µM,1.77,11.3
COc1ccc(Nc2nc3cc(C(F)(F)F)ccc3nc2-c2ccccc2)cc1OC,–,> 100,–,> 100 µM,–,9.1,–,–,–,85.8 µM,–,69.7 µM,–,> 100,–,35.9,–,> 100 µM,–,> 100
COc1ccc(-c2coc3cc(O)ccc3c2=O)cc1,–,> 100,–,> 100 µM,–,–,–,> 100 µM,–,> 100 µM,–,> 100 µM,–,> 100,–,–,–,> 100 µM,–,> 100
O=C(Cc1ccccc1[N+](=O)[O-])C(CO)c1ccccc1[N+](=O)[O-] (centres undefined),–,> 100,–,> 100 µM,–,93.3,–,–,–,> 100 µM,–,> 100 µM,–,> 100,–,> 100,–,> 100 µM,–,> 100
N#CC(C#N)=CNCCN1CCN(C=C(C#N)C#N)CC1,–,> 100,–,> 100 µM,–,> 100,–,> 100 µM,–,> 100 µM,–,> 100 µM,–,> 100,–,–,–,> 100 µM,–,> 100
COC(=O)C1CSC(c2csc(CCN)n2)=N1 (centres undefined),–,> 100,–,> 100 µM,–,> 100,–,–,–,> 100 µM,–,> 100 µM,–,> 100,–,> 100,–,> 100 µM,–,> 100
COC(=O)C12CCC(C)(C)CC1C1=CCC3C4(C)CC(O)C(O)C(C)(C(=O)OC)C4CCC3(C)C1(CO)CC2 (centres undefined),–,29.1,–,29.1 µM,–,29.1,–,28.2 µM,–,–,–,38.5 µM,–,31.5,–,19.5,–,27.5 µM,–,28.9
C[C@@H](N)COc1ccc(-c2cnc3ccc(N[C@H](C)c4cccc(F)c4)nn23)cc1,1.1,2.96,2.32,10.1 µM,0.338,1.89,1.61,3.82 µM,1.33,2.62 µM,1.62,7.31 µM,2.12,4.66,–,–,1.55,3.44 µM,1.97,4.74
COc1cc(OC)cc(Oc2cnc3cc(N)cc(N)c3n2)c1,14,37.5,18.3,45.1 µM,–,–,24.7,87.8 µM,10.7,22.5 µM,17.1,38 µM,1.83,10.5,15.4,29,18.6,43.7 µM,14.4,27.8
COC(=O)C1=COC2OC3C(C(C)O)C(=O)OC34C=CC1C24 (centres undefined),–,> 100,–,> 100 µM,–,> 100,–,> 100 µM,–,> 100 µM,–,> 100 µM,–,> 100,–,–,–,> 100 µM,–,79.1
C/C(=N\NC(=S)N1CCN(c2ccccn2)CC1)c1ccccn1,–,–,–,14.5 µM,0.00295,13,1.28,27.9 µM,0.406,12.8 µM,0.236,7.33 µM,–,14.2,–,13.4,–,16.2 µM,< 0.0114,–
COC1=CC(c2ccc[nH]2)=N/C1=C\c1[nH]c(C)c(C(=O)CCC(=O)Oc2ccc3c(c2)CCC2C3CC[C@]3(C)[C@@H](O)CC[C@@H]23)c1C (some centres undefined),5.15,> 100,1.29,4.18 µM,1.45,4.39,3.17,> 100 µM,–,–,4.77,> 100 µM,2.96,27.9,4.71,69.8,0.816,5.14 µM,1.7,4.62
O=[N+]([O-])c1ccc(/C=C/c2nc3ccc(Cl)cc3[nH]2)cc1,> 100,> 100,11.7,> 100 µM,–,–,68.2,> 100 µM,> 100,> 100 µM,45.9,> 100 µM,22.4,65.1,71.7,> 100,28.7,> 100 µM,> 100,> 100
O=C(/C=C/C12c3ccccc3C(c3ccccc31)C1C(=O)N(c3ccc(Cl)cc3)C(=O)C12)c1ccccn1 (centres undefined),0.49,1.13,0.206,0.66 µM,0.452,1.11,–,–,0.242,0.639 µM,0.258,0.878 µM,0.224,0.52,0.187,0.448,0.3,0.994 µM,0.279,0.973
CCCCCCCCCCCCCC[n+]1ccccc1,0.614,2.12,1.9,13.2 µM,0.144,0.841,1.59,5.13 µM,0.401,1.59 µM,–,–,0.674,2.26,–,–,0.779,2.59 µM,0.96,2.34
O=C(O)CCCCn1ccc(=O)[nH]c1=O,–,> 100,–,> 100 µM,–,–,–,> 100 µM,–,> 100 µM,–,> 100 µM,–,> 100,–,> 100,–,> 100 µM,–,> 100
